In US20150250782A1, “Methods and Compositions for Hypotensive Resuscitation” (Pharmazz, Inc., priority 2012, published 2015):

How the values were obtained:
hemorrhaged rats [1] = assay: Initial experiments in hemorrhaged rats with 0.45 mg/kg centhaquin; assay type: in vivo, rat
Procedure: Initial experiments in hemorrhaged rats were performed with a 0.45 mg/kg dose of centhaquin. […] Centhaquin (0.45 mg/kg) produced a decrease in HR (beats/min) from 368±12 at hemorrhage, to 306±6, 309±6 and 274±11 at 30, 60 and 120 min, respectively, following resuscitation; cardiac output (mL) increased from 32±6 at hemorrhage, to 77±3, 74±4 and 62±5 at 30, 60 and 120 min, respectively, following resuscitation; while systemic vascular resistance (dynes*sec/cm5) was 84±4 at hemorrhage, and fell to 39±9, 42±9 and 45±6 at 30, 60 and 120 min, respectively, following resuscitation.

hemorrhaged rats [2] = assay: Fixed-pressure hemorrhage model, centhaquin dissolved in LR (100% SBV); assay type: in vivo, rat
Procedure: In the studies disclosed below, a rodent model of fixed-pressure hemorrhage without tissue trauma was used. This model limits factors that can influence the activity of a drug that is being investigated for the first time as a resuscitation agent. This hemorrhage model was made more severe by maintaining the hypotension for 30 minutes from the onset of hemorrhage to reach a base deficit of greater than −12 mEq/L (Gulati, Sen et al. 1997). In this irreversible situation, compensatory mechanisms fail (decompensatory phase), and a tremendous decrease in blood flow to all organs occurs, causing hypoperfusion leading to tissue hypoxia and end-organ failure (Gulati, Sen et al. 1997).
A rodent model of fixed-pressure hemorrhage without tissue trauma was used in a preliminary study. This hemorrhage model was made more severe by maintaining the hypotension for 30 min from the onset of hemorrhage to reach a base deficit of greater than −12 mEq/L (Gulati, Sen et al. 1997). […] Following groups were studied: Lactated Ringer's solution (LR-100) (100% shed blood volume (SBV)), or centhaquin (free base) (0.017, 0.05 and 0.15 mg/kg) dissolved in LR (100% SBV), or LR-300 (300% SBV).

hemorrhaged rats [3] = assay: Fixed-pressure hemorrhage model, centhaquin in hypertonic saline; assay type: in vivo, rat
Procedure: A sham group of rats was cannulated, but not hemorrhaged. A vehicle group received hypertonic saline. Treatment groups received centhaquin (free base) (0.006, 0.017, or 0.05 mg/kg) in hypertonic saline. The values are expressed as mean±S.E.M. with n=6 rats in each group.
FIGS. 9-12 show the effect of centhaquin on blood lactate and base deficit in hemorrhaged rats (FIG. 9); on mean arterial pressure and heart rate (FIG. 10); on cardiac output and stroke volume (FIG. 11); and on systemic vascular resistance and stroke work (FIG. 12). Like the tests of FIG. 8, a sham group of rats was cannulated but not hemorrhaged, a vehicle group received hypertonic saline, and treatment groups received free base centhaquin (0.006, 0.017, or 0.05 mg/kg) in hypertonic saline. The values are expressed as mean±S.E.M. with n=6 rats in each group. *p<0.05 compared to baseline, #p<0.05 compared to hemorrhage, Δp<0.05 compared to vehicle treated group.
FIG. 13 is a plot of fraction survival vs. time for groups of hemorrhaged rats. The sham group of rats was cannulated, but not hemorrhaged. The vehicle group received hypertonic saline, while treatment groups received centhaquin (free base) (0.006, 0.017, or 0.05 mg/kg) in hypertonic saline.
Centhaquin increased the survival time of hemorrhaged rats compared to hypertonic saline treatment. Median survival time for 50% survival rate of rats treated with hypertonic saline was 137±12 minutes, while for rats treated with centhaquin it was 375±25 minutes. Fraction survival at 250 min was 0 when resuscitated with hypertonic saline, while treatment with centhaquin improved the fraction survival to 0.8. Even at 480 min after resuscitation with centhaquin, the fraction survival was 0.2. […] The findings of the present study are novel, unexpected, and are important due to recent reports of large clinical studies showing hypertonic saline has no benefit over normal saline in patients with hypovolemic shock or severe traumatic brain injury (Bulger, May et al. 2010; Bulger, May et al. 2011).

[4] = test system: endothelin A (ETA) receptors; assay: Expression of ETA receptors in blood vessels after intravenous administration; assay type: in vivo, rat; conditions: intravenous administration in rats
[5] = test system: isolated perfused rabbit heart; conditions: Bhatnagar, Pande et al. 1985; cited from earlier work
[6] = test system: right auricle of guinea pig; conditions: Srimal, Mason et al. 1990, cited from earlier work
[7] = test system: urethane anesthetized rats and conscious freely moving cats and rats; conditions: 0.05 to 0.2 mg/kg, iv; Srimal, Gulati et al. 1990; cited from earlier work
[8] = test system: release of norepinephrine; conditions: 0.1, 1.0 and 10.0 μg/ml; Bhatnagar, Pande et al. 1985; cited from earlier work
[9] = 120 min following resuscitation
[10] = 0.05 mg/kg, 60 min following resuscitation

## Cc1cccc(N2CCN(CCc3ccc4ccccc4n3)CC2)c1 [centhaquin, 2-[2-(4-(3-methyphenyl)-1-piperazinyl)ethyl]-quinoline]
Hemorrhaged rats [1]; 30 min following resuscitation
  HR: 306±6 beats/min
  MAP: 38±4 mmHg
  cardiac output: 77 ± 3 mL
  systemic vascular resistance: 39±9 dynes*sec/cm5
Hemorrhaged rats [1]; 60 min following resuscitation
  HR: 309±6 beats/min
  MAP: 39±4 mmHg
  cardiac output: 74 ± 4 mL
  systemic vascular resistance: 42±9 dynes*sec/cm5
Hemorrhaged rats [1]; [9]
  HR: 274±11 beats/min
  MAP: 35±4 mmHg
  cardiac output: 62 ± 5 mL
  systemic vascular resistance: 45±6 dynes*sec/cm5
Hemorrhaged rats [1]; at hemorrhage
  HR: 368±12 beats/min
  cardiac output: 32 ± 6 mL
  systemic vascular resistance: 84±4 dynes*sec/cm5
Hemorrhaged rats [2]; 0.017 mg/kg
  decrease in systemic vascular resistance: 57%
  increase in MAP: 55%
  increase in cardiac output: 260%
Hemorrhaged rats [2]; 0.017 mg/kg in LR (100% SBV)
  survival time: 291 ± 57 min
Hemorrhaged rats [2]; 0.017 mg/kg, 60 min following resuscitation
  blood lactate levels: 3.55 ± 0.07 mmol/L
Hemorrhaged rats [2]; 0.05 mg/kg
  decrease in systemic vascular resistance: 41%
  increase in cardiac output: 180%
Hemorrhaged rats [2]; 0.05 mg/kg in LR (100% SBV)
  survival time: 387 ± 39 min
Hemorrhaged rats [2]; 0.05 mg/kg in LR-100 vs LR-300 (300% SBV)
  resuscitation compared to LR-300: more effective in resuscitation
Hemorrhaged rats [2]; [10]
  blood lactate levels: 4.08 ± 0.28 mmol/L
  increase in MAP: 59%
Hemorrhaged rats [3]; 0.017 mg/kg
  survival time compared to other groups: maximal survival time
Hemorrhaged rats [3]; at 250 min
  Fraction survival: 0.8
Hemorrhaged rats [3]; at 480 min after resuscitation
  Fraction survival: 0.2
Hemorrhaged rats [3]; centhaquin in hypertonic saline
  Median survival time for 50% survival rate: 375 ± 25 min
[4]
  expression of endothelin A (ETA) receptors in the blood vessels: increase the expression
[5]
  inotropic effect, ventricular contractions: positive inotropic effect
[6]
  effect on positive inotropic effect of norepinephrine: significantly potentiated
[6]; up to a concentration of 2 μg/ml
  spontaneous contraction of the right auricle: not affected
[7]
  mean arterial pressure (MAP) and heart rate (HR): dose-dependent decrease
[8]
  norepinephrine release evoked by potassium chloride and dimethyl phenyl piperazinium chloride: inhibited
  spontaneous release of norepinephrine: initial increase, followed by a decrease
